Row | SMILES | melting point [°C]
1 | COC(=O)c1cccc(C=Cc2nc3cc(F)ccc3s2)c1 | 172 to 173
2 | O=C1NC(=O)C(Nc2ccc(CCNCC(O)COc3ccc4ccccc4c3)cc2)S1 (stereo unspecified) | 90 to 91
3 | COC(=O)c1ccc(-c2ccc(NC(=O)c3ccc(OC)c(CCCN(C)C)c3)cc2)cc1 | 188 to 192
4 | COc1ccc(NN=C(Sc2ccc(F)cc2)C(C)=O)cc1 | 135 to 137
5 | CC1(C)Oc2ccc(C#N)cc2[C@@H](N(C(N)=O)c2ccccc2)[C@@H]1O (relative stereo) | 226 to 227
6 | COc1ccc2c(c1)Oc1c(ccc(OC)c1C(OC)OC)C2(C)C | 60 to 62
7 | COc1ccc2ccc(NC(=O)c3ccco3)nc2n1 | 201
8 | O=C(O)Cc1nc(-c2ccc(Cl)cc2)sc1Sc1ccccc1 | 191 to 193
9 | CON(CCCCn1c(C)nc2c(N)nc3ccccc3c21)S(C)(=O)=O | 201 to 203
10 | CS(=O)(=O)Nc1ccc2ccccc2c1-c1c(P(c2ccccc2)c2ccccc2)ccc2ccccc12 | 109
11 | CC(C)C[C@H](NC(=O)c1ccc2c(c1)Nc1ccccc1S2)C(=O)N[C@@H](CC(C)C)C(=O)N[C@@H](CC(C)C)C(=O)N[C@H]1CCOC1O (stereo partly specified) | 174 to 176
12 | OC1CCCCCC1n1cncn1 (stereo unspecified) | 85 to 86
13 | NNc1nnc(Cl)cc1C(=O)O | 198 to 201
14 | CCCCCCC(C)(C)c1ccc(C2CC(=O)CC(=O)C2)c(OCc2ccccc2)c1 | 102 to 103
15 | CC(=O)OCCCNc1nnc(NCCCOC(C)=O)c2c1C(=O)c1ccccc1C2=O | 142 to 145
16 | O=C(c1cc(Br)c(O)c(Br)c1)c1c(CCc2ccccc2)oc2ccccc12 | 153 to 154
17 | CC(C)C(O)c1ccc2oc3ncccc3c(=O)c2c1 (stereo unspecified) | 160
18 | CNC(=O)c1cc(N2CCN(C)CC2)ncc1Br | 122 to 125
19 | CS(=O)(=O)c1cc(C(F)(F)F)ccc1C(=O)CC(=O)C1CC1 | 123 to 125
20 | CCOC(=O)C(=Cc1cccn2c(Br)cnc12)N=[N+]=[N-] | 90 to 92
21 | CC1(C)Oc2ccc(C#N)cc2[C@@H](O)[C@@H]1Br (relative stereo) | 128
22 | COc1cccc(-c2cccc(OC3SCC(O)C(O)C3O)c2)n1 (stereo unspecified) | 206
23 | CC(CCN1c2cccc3cccc(c23)S1(=O)=O)N1CCN(c2ccc(F)cc2)CC1 (stereo unspecified) | 122
24 | CN(C)CCNC(=O)c1ccc(-c2cccc(CSCCOc3ccccc3)c2)cc1 | 75 to 78
25 | COC(=O)CCN(CC(=O)O)CC(=O)O | 141
26 | O=C(Nc1cccc(C(F)(F)F)c1F)c1ccccc1[N+](=O)[O-] | 156 to 157

Row | SMILES | melting point [°C]
27 | CCOC(=O)N1CCN(c2ccc(-n3cn[nH]c3=O)cn2)CC1 | 221
28 | CCCCOc1ccc2c(=O)n(Cc3ccccc3)[nH]c2c1 | 148 to 149
29 | Cc1cc(-c2noc(CO)n2)ccc1Br | 111 to 112
30 | CN1C(=O)OC[C@@H]1Cc1ccc([N+](=O)[O-])cc1 | 146 to 147
31 | CCOC(=O)c1cn(-c2cccs2)c2c(F)c(F)c(F)c(C)c2c1=O | 198 to 200
32 | COc1cc(OCc2ccccn2)ccc1/C=C/C(=O)CC(=O)/C=C/c1ccc2cc[nH]c2c1 | 165 to 168
33 | CCOC(=O)Cc1nc2cc(Cl)ccc2n1CC | 44 to 45
34 | COc1ccc2c(c1)c(CCNC(C)=O)cn2S(=O)(=O)c1ccccc1 | 140 to 141
35 | CN=C(NC#N)N1CCc2nc(N)sc2C1 | 231 to 234
36 | Cc1nc2cnc3ccc(Cl)cc3c2n1-c1ccccc1Cl | 178
37 | Cc1[nH]n(-c2c(Cl)cc(C(F)(F)F)cc2Cl)c(=O)c1C=O | 195 to 197
38 | C=Cc1cc(C)cc(C)c1CC(=O)NC1(C(=O)OC)CCN(OC)CC1 | 142 to 144
39 | N#CCC(O)(c1ccccc1C(F)(F)F)c1ccccc1C(F)(F)F | 168 to 170
40 | CON(C)Cc1nc2c(N)nc3ccccc3c2n1CC1CCOCC1 | 223 to 226
41 | CNc1nc(C(C)c2ccc(-c3ccccc3)c(F)c2)c(C=O)s1 (stereo unspecified) | 126 to 128
42 | O=C(CO)c1ccc(F)cc1 | 116 to 117
43 | COc1ccc(-c2ocnc2-c2cc(OC)c(OC)c(OC)c2)cc1F | 139 to 140
44 | CC(=O)CCc1ccc2c(c1)Cc1cc(N)ccc1-2 | 116 to 117
45 | COc1ccc(-c2nc3n(c2-c2ccncc2)CCS3=O)cc1 (stereo unspecified) | 165 to 170
46 | COc1cc(C(C)C)c2c(c1)S(=O)(=O)N(COc1cc(C#N)nn1-c1ccc(Cl)cc1Cl)C2=O | 183 to 184
47 | CCCCOc1ccc(Cc2nn(-c3ccccc3Cl)c(=O)o2)cc1 | 63
48 | CC1CCCN1CCCOc1ccc(-c2ccc(S(=O)Cc3ccccc3)nn2)cc1 (stereo unspecified) | 145
49 | COC(=O)C(=O)c1c(Cl)cc(OCCOc2ccc3ccccc3c2)cc1Cl | 142 to 144
50 | O=Cc1cccc(NC(=O)NC2N=C(c3ccccc3F)c3ccccc3N(CC(=O)N3CC4CCC(CC4)C3)C2=O)c1 (racemic) | 164 to 182
51 | O=S(=O)(NC(CO)CO)c1ccc(Cl)s1 | 90 to 92
52 | Cc1[nH]c(=S)n(Nc2cccc(Cl)c2)c1-c1cccc(Cl)c1 | 204

Row | SMILES | melting point [°C]
53 | COCCOCOc1ccccc1N1C(C(C)(C)C)ONC1(Br)C(C)(C)C (stereo unspecified) | 89 to 91
54 | C=CCOC(=O)C(C(=O)NC1C(=O)N2C1SC(C)(C)C2C(=O)OCC=C)=C1SCCS1 (stereo unspecified) | 76 to 77
55 | CCC(C)(C)c1ccc(OCCCC(=O)Nc2ccc(OC)c(NC(=O)CC(=O)C3(C)COC(C)(C)OC3)c2)c(C(C)(C)CC)c1 | 128 to 130
56 | CS(=O)(=O)NCC1COCc2nc3c(N)nc4ccccc4c3n21 (stereo unspecified) | 285 to 288
57 | Nc1cc(Cl)cc(Cl)c1I | 61 to 63
58 | O=C1CCN(Cc2cc([N+](=O)[O-])ccc2O)CC1C(c1ccccc1)c1ccccc1 (stereo unspecified) | 177 to 178
59 | O=C1c2ccccc2C(=O)N1Cc1cc2cc(Cl)cc(-c3ccccc3)c2o1 | 163 to 166
60 | COc1ccc(O)c(CSc2nc(C)cn2C)c1 | 111 to 112
61 | CC(C)(C)OC(=O)N1CCC(CS(=O)Cc2cc(C(F)(F)F)cc(C(F)(F)F)c2)(c2ccccc2)CC1 (stereo unspecified) | 123 to 134
62 | CCCCc1ccc(C=Nc2ccc(C#N)cc2)cc1 | 38.1 to 38.7
63 | C=CCOCc1ccc([N+](=O)[O-])cc1Nc1nccc(-c2cccnc2)n1 | 213 to 215
64 | CCOC(=O)N1C=CN(c2ccccc2)C1C#N (stereo unspecified) | 109 to 111
65 | CCn1cc(C(=O)O)c(=O)cc1-c1cccnc1 | 209 to 210
66 | COc1cccc2c(=O)c(-c3cccc(C(F)(F)F)c3Cl)nn(Cc3ccc(F)cc3F)c12 | 141 to 142
67 | COC(=O)[C@H]1O[C@H]1C(=O)N(CC(=O)OC(C)(C)C)c1ccc(OC)cc1 | 89
68 | CC(NC(=S)NCC(COC(=O)C(C)(C)C)Cc1ccccc1)c1ccc(NS(C)(=O)=O)cc1 (stereo unspecified) | 58 to 62
69 | CS(=O)c1cc(Br)nc(Br)c1 (stereo unspecified) | 98 to 100
70 | CSc1nc(-c2cc(C(C)(C)C)c(O)c(C(C)(C)C)c2)c[nH]1 | 249 to 251
71 | O=C(O)c1ccc(N(CCCc2ccc(Cl)cc2)CCCc2ccc(Cl)cc2)cc1 | 128 to 131
72 | Cc1ccc(Cn2c(-c3ccc(C(O)(C(F)(F)F)C(F)(F)F)cc3)cc3ccccc3c2=O)cc1 | 267 to 268
73 | Nc1ccc(Cl)cc1C(O)c1ccccc1F (stereo unspecified) | 94 to 98
74 | CC(=CC(=O)c1ccncc1)N(C)C | 88 to 89
75 | Cc1cccc(N2CCN(c3nnc(Cl)c(C)c3C)CC2)c1C | 194
76 | CCOC(=O)c1c(Cl)nn(C)c1S(=O)(=O)NC(=O)Nc1nc(OC)cc(OC)n1 | 169 to 170
77 | CCCn1c(CCOC)nc2c(N)nc3cc(OC4CCN(C(=O)OC(C)(C)C)CC4)ccc3c21 | 173 to 175
78 | COc1ccc2c(c1)c1c3c(c(-c4ccccc4Cl)cc1n2CCC(=O)NS(=O)(=O)CCN(C)C)C(=O)NC3=O | 208 to 213

Row | SMILES | melting point [°C]
79 | NC(=O)Cc1cccc(Oc2ccccc2)c1 | 115 to 117
80 | COc1ccccc1N1CCc2c1c1cccc(OC)c1[nH]c2=O | 185 to 188
81 | CCCCCC(=O)c1c[nH]c2ccccc12 | 153 to 154
82 | Cn1ccnc1Sc1ccc(F)cc1[N+](=O)[O-] | 123 to 126
83 | COc1ccc(C(C)=O)cc1C(C)=CC(=O)O | 194
84 | Cc1cccc(C)c1CNc1cc(C(=O)N(C)C)nc2c(CO)c(C)[nH]c12 | 301
85 | CCCc1c2nc(C(=O)Nc3ccccc3)cc(Cl)c2cc2c(=O)cc(C(=O)Nc3ccccc3)oc12 | > 315
86 | N#CNc1nc2ccccc2o1 | 175
87 | CCOC(=O)c1cc(C#N)cc(C)n1 | 50
88 | O=C(O)c1ccc(Oc2nccs2)cc1 | 162 to 163
89 | Cc1ccc(C(=O)c2cnn3c(-c4cccnc4)ccnc23)cc1 | 203 to 204
90 | Cc1cccc2c(-c3ccc(C(F)(F)F)cc3)onc12 | 118 to 119
91 | CCOC(=O)C1=C(C)Nc2ccnc(OC(C)C)c2C1c1cccc([N+](=O)[O-])c1 (stereo unspecified) | 180 to 182
92 | CCCCOCCOc1ccc(-c2cnc3c(c2)C=C(C(=O)O)CCCN3CCC)cc1 | 123 to 125
93 | Cc1ccc(C=CC(C#N)=NO)cc1 | 135 to 137
94 | CC(=O)c1c(-c2ccncc2)[nH]c(-c2ccncc2)c1C | 237 to 240
95 | CC(C)(C)c1cc(Cn2nc(C=Cc3nn(Cc4cc(C(C)(C)C)c(O)c(C(C)(C)C)c4)c(=O)o3)oc2=O)cc(C(C)(C)C)c1O | 263
96 | NC(=S)C=C(N)CCOCc1ccccc1 | 93 to 94
97 | CCc1ccnc(C(=O)c2[nH]c3ccc(Cl)cc3c2CC(=O)O)c1 | 217 to 218
98 | O=C(O)CCc1conc1-c1ccc(F)c(Br)c1 | 151 to 152
99 | COc1ccc(-c2ccccc2)c(NC(=N)N2CCOCC2)c1 | 140 to 142
100 | O=C(O)CCc1oc(Oc2ccccc2)nc1-c1ccc(Cl)cc1 | 136 to 137
101 | CCCCCCCCCC(=O)Nc1ccc(S(=O)(=O)Nc2nnc(C(=O)OCC)s2)cc1 | 101 to 102

Reference: a melting point compilation (Tetko et al.; mined from patent text by program, amines drawn as free bases though some values may be those of a salt)
